Data from US9328106B2, “Cyclic ether pyrazol-4-yl-heterocyclyl-carboxamide compounds and methods of use” (Genentech, Inc., priority 2012, dated 2016).

What follows are compounds tested against PIM1 (Homo sapiens (Human), UniProt P11309) (assay: biochemical). Conditions: 20 pM PIM1, 1 μM FAM-peptide, 10 μM ATP, 90 minutes at room temperature; read-out: PIM1 LC3K (KI).
Chain of PIM1 (P11309 whole entry): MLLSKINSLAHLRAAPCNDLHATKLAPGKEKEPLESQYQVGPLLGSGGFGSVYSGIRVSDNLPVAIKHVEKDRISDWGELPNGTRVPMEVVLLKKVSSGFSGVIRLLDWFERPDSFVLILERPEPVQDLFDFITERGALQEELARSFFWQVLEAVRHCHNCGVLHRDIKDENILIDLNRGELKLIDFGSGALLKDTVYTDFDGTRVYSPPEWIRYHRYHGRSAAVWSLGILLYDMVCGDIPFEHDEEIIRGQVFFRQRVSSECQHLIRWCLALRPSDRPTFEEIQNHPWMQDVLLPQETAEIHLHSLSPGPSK
Format: biochemical
A Ki of 0.155 nM was found for `Cn1ncc(NC(=O)c2nc(-c3ccccc3OC(F)(F)F)sc2N)c1[C@@H]1CC[C@@H](N)[C@@H](F)CO1` [Example 266, 5-amino-N-(5-((2S,5R,6R)-5-amino-6-fluorooxepan-2-yl)-1-methyl-1H-pyrazol-4-yl)-2-(2-(trifluoromethoxy)phenyl)thiazole-4-carboxamide] in this work.
A Ki of 0.031 nM was found for `COCc1cc(F)c(-c2nc(C(=O)Nc3cnn(C)c3[C@@H]3CC[C@@H](N)[C@H](F)CO3)ccc2F)c(F)c1` [Example 199, N-(5-((2S,5R,6S)-5-amino-6-fluorooxepan-2-yl)-1-methyl-1H-pyrazol-4-yl)-6-(2,6-difluoro-4-(methoxymethyl)phenyl)-5-fluoropicolinamide] in this work.
A Ki of 0.018 nM was found for `Cn1ncc(NC(=O)c2ccc(F)c(-c3c(F)cc(OC4CCOCC4)cc3F)n2)c1[C@@H]1CC[C@@H](N)[C@H](F)CO1` [Example 197, N-(5-((2S,5R,6S)-5-Amino-6-fluorooxepan-2-yl)-1-methyl-1H-pyrazol-4-yl)-6-(2,6-difluoro-4-((tetrahydro-2H-pyran-4-yl)oxy)phenyl)-5-fluoropicolinamide] in this work.
A Ki of 0.112 nM was found for `Cn1ncc(NC(=O)c2csc(-c3c(F)cncc3F)n2)c1[C@@H]1CC[C@@H](N)[C@@H](F)CO1` [Example 247, N-(5-((2S,5R,6R)-5-amino-6-fluorooxepan-2-yl)-1-methyl-1H-pyrazol-4-yl)-2-(3,5-difluoropyridin-4-yl)thiazole-4-carboxamide] in this work.
A Ki of 0.016 nM was found for `Cn1ncc(NC(=O)c2ccc(F)c(-c3c(F)cccc3F)n2)c1[C@@H]1CC[C@@H](N)[C@H](F)CO1` [Example 397, N-[5-[(2S,5R,6S)-5-amino-6-fluoro-oxepan-2-yl]-1-methyl-pyrazol-4-yl]-6-(2,6-difluorophenyl)-5-fluoro-pyridine-2-carboxamide] in this work.
A Ki of 0.044 nM was found for `Cn1ncc(NC(=O)c2csc(-c3cccc(F)c3F)n2)c1[C@@H]1CC[C@@H](N)[C@H](F)CO1` [Example 306, N-(5-((2S,5R,6S)-5-amino-6-fluorooxepan-2-yl)-1-methyl-1H-pyrazol-4-yl)-2-(2,3-difluorophenyl)thiazole-4-carboxamide] in this work.
A Ki of 0.054 nM was found for `Cn1ncc(NC(=O)c2nc(-c3c(F)cccc3F)sc2N)c1C1CCC(O)CCO1` (stereo not drawn) [Example 134, 5-amino-2-(2,6-difluorophenyl)-N-[5-(5-hydroxyoxepan-2-yl)-1-methyl-pyrazol-4-yl]thiazole-4-carboxamide] in this work.
A Ki of 0.081 nM was found for `C[C@@H]1C[C@H](N)CC[C@H](c2c(NC(=O)c3nc(-c4c(F)cccc4F)sc3N)cnn2C)O1` [Example 120, 5-amino-N-(5-((2R,5R,7R)-5-amino-7-methyloxepan-2-yl)-1-methyl-1H-pyrazol-4-yl)-2-(2,6-difluorophenyl)thiazole-4-carboxamide] in this work.
A Ki of 0.007 nM was found for `Cn1ncc(NC(=O)c2nc(-c3cccc(Cl)c3F)sc2N)c1[C@@H]1CC[C@@H](N)[C@H](F)CO1` [Example 338, 5-amino-N-(5-((2S,5R,6S)-5-amino-6-fluorooxepan-2-yl)-1-methyl-1H-pyrazol-4-yl)-2-(3-chloro-2-fluorophenyl)thiazole-4-carboxamide] in this work.
A Ki of 0.248 nM was found for `Cn1ncc(NC(=O)c2nc(-c3c(F)cccc3F)sc2N)c1[C@@H]1C[C@H](N)CCO1` [Example 160, 5-Amino-N-[5-[(2S,4R)-4-aminotetrahydropyran-2-yl]-1-methyl-pyrazol-4-yl]-2-(2,6-difluorophenyl)thiazole-4-carboxamide] in this work.
A Ki of 0.595 nM was found for `Cn1ncc(NC(=O)c2nc(-c3c(F)cccc3F)sc2N)c1[C@H]1CC[C@H](N)[C@@H](F)CO1` [Example 176, 5-Amino-N-[5-[(2R,5S,6R)-5-amino-6-fluoro-oxepan-2-yl]-1-methyl-pyrazol-4-yl]-2-(2,6-difluorophenyl)thiazole-4-carboxamide] in this work.
A Ki of 0.126 nM was found for `Cn1ncc(NC(=O)c2nc(-c3c(F)cccc3F)sc2N)c1[C@@H]1C[C@@H](N)[C@@H](F)CCO1` (stereo in doubt) [Example 170, 5-Amino-N-[5-[4-amino-5-fluoro-oxepan-2-yl]-1-methyl-pyrazol-4-yl]-2-(2,6-difluorophenyl)thiazole-4-carboxamide] in this work.
A Ki of 0.058 nM was found for `Cn1ncc(NC(=O)c2nc(-c3cnn(C)c3C(F)(F)F)sc2N)c1[C@@H]1CC[C@@H](N)[C@H](F)CO1` [Example 282, 5-amino-N-(5-((2S,5R,6S)-5-amino-6-fluorooxepan-2-yl)-1-methyl-1H-pyrazol-4-yl)-2-(1-methyl-5-(trifluoromethyl)-1H-pyrazol-4-yl)thiazole-4-carboxamide] in this work.
A Ki of 0.281 nM was found for `Cn1cc(-c2nc(C(=O)Nc3cnn(C)c3[C@@H]3CC[C@@H](N)[C@@H](F)CO3)cs2)c(C(F)(F)F)n1` [Example 252, N-(5-((2S,5R,6R)-5-amino-6-fluorooxepan-2-yl)-1-methyl-1H-pyrazol-4-yl)-2-(1-methyl-3-(trifluoromethyl)-1H-pyrazol-4-yl)thiazole-4-carboxamide] in this work.
A Ki of 0.267 nM was found for `Cn1ncc(NC(=O)c2csc(-n3cc4c(n3)CCCC4)n2)c1[C@@H]1CC[C@@H](N)[C@H](F)CO1` [Example 390, N-(5-((2S,5R,6S)-5-amino-6-fluorooxepan-2-yl)-1-methyl-1H-pyrazol-4-yl)-2-(4,5,6,7-tetrahydro-2H-indazol-2-yl)thiazole-4-carboxamide] in this work.
A Ki of 0.016 nM was found for `Cc1cccc(F)c1-c1nc(C(=O)Nc2cnn(C)c2[C@@H]2CC[C@@H](N)[C@H](F)CO2)c(N)s1` [Example 330, 5-amino-N-(5-((2S,5R,6S)-5-amino-6-fluorooxepan-2-yl)-1-methyl-1H-pyrazol-4-yl)-2-(2-fluoro-6-methylphenyl)thiazole-4-carboxamide] in this work.
A Ki of 0.027 nM was found for `COc1cc(F)c(-c2nc(C(=O)Nc3cnn(C)c3[C@@H]3CC[C@@H](N)[C@@H](F)CO3)ccc2F)c(F)c1` [Example 187, N-(5-((2S,5R,6R)-5-Amino-6-fluorooxepan-2-yl)-1-methyl-1H-pyrazol-4-yl)-6-(2,6-difluoro-4-methoxyphenyl)-5-fluoropicolinamide] in this work.
A Ki of 0.053 nM was found for `CC(O)c1cc(F)c(-c2nc(C(=O)Nc3cnn(C)c3[C@@H]3CC[C@@H](N)[C@@H](F)CO3)ccc2F)c(F)c1` (stereo partly drawn) [Example 210, N-(5-((2S,5R,6R)-5-amino-6-fluorooxepan-2-yl)-1-methyl-1H-pyrazol-4-yl)-6-(2,6-difluoro-4-(1-hydroxyethyl)phenyl)-5-fluoropicolinamide] in this work.
A Ki of 0.441 nM was found for `CC1C(c2c(NC(=O)c3nc(-c4c(F)cccc4F)sc3N)cnn2C)OCC(C)(O)C1N` (stereo not drawn) [Example 142, 5-amino-N-[5-(4-amino-5-hydroxy-3,5-dimethyl-tetrahydropyran-2-yl)-1-methyl-pyrazol-4-yl]-2-(2,6-difluorophenyl)thiazole-4-carboxamide] in this work.
A Ki of 0.057 nM was found for `CO[C@@H]1C[C@@H](c2c(NC(=O)c3nc(-c4c(F)cccc4F)sc3N)cnn2C)OCC[C@H]1N` [Example 136, 5-amino-N-(5-((2S,4R,5R)-5-amino-4-methoxyoxepan-2-yl)-1-methyl-1H-pyrazol-4-yl)-2-(2,6-difluorophenyl)thiazole-4-carboxamide] in this work.
A Ki of 0.00762 nM was found for `Cn1ncc(NC(=O)c2csc(-c3c(F)cc(C4(O)CCOC4)cc3F)n2)c1[C@@H]1CC[C@@H](N)[C@H](F)CO1` (stereo partly drawn) [Example 215, N-(5-((2S,5R,6S)-5-amino-6-fluorooxepan-2-yl)-1-methyl-1H-pyrazol-4-yl)-2-(2,6-difluoro-4-(3-hydroxytetrahydrofuran-3-yl)phenyl)thiazole-4-carboxamide] in this work.
